Results as given in PMC7296167, “SrrB, a Pseudo-Receptor Protein, Acts as a Negative Regulator for Lankacidin and Lankamycin Production in Streptomyces rochei” (Frontiers in Microbiology, 2020).

How the values were obtained:
SrrB = molecular target: T1, SrrB (Streptomyces rochei, UniProt Q83X25); experiment: gel shift assay, dissociation from […]-labelled srrY promoter probe Y1; type: binding; conditions: 0.5 nM probe Y1, 2,000 nM SrrB, 26 C, pH 8.0; DNA release read-out
T1 construct: pET32b(+) His6 fusion from E. coli BL21(DE3)pLysS; N-terminal tag removed with enterokinase
T1 sequence (Q83X25 1-228): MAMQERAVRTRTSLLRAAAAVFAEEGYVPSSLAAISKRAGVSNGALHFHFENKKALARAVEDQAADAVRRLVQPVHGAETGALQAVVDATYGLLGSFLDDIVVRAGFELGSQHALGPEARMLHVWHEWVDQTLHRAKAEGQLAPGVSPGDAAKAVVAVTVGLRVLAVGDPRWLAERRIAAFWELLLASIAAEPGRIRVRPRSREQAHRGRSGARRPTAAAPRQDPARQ

SrrA = molecular target: T2, SrrA (Streptomyces rochei, UniProt Q83X22); experiment: gel shift assay, dissociation from […]-labelled srrB probe B1 and srrY probe Y1; type: binding; conditions: […] SRB1 on probe B1, concentration series on probe Y1; […] SrrA, […] probe, […] C, pH […]
T2 construct: recombinant, overexpressed in E. coli, prepared as in Yamamoto et al. 2008
T2 sequence (Q83X22 1-222): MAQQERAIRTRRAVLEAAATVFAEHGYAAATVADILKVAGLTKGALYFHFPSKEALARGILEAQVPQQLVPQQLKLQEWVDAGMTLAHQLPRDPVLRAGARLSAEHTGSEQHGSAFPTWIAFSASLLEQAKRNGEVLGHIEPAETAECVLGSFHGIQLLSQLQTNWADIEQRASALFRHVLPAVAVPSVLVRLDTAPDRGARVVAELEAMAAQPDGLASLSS

## CC1=C([C@H](O)CCCCC(=O)CC(C)C)C(=O)OC1O (some centres unmarked) [compound 7, SRB1]
SrrB
  concentration required for dissociation: 1 mM
SrrA
  gel shift assay, dissociation from 32P-labelled srrB probe B1 and srrY probe Y1: Addition of SRB led to dissociation of SrrA from probe B1
